Reference: patent US20240365781A1, “SYNERGISTICALLY EFFECTIVE HERBICIDE COMPOSITION COMPRISING PELARGONIC ACID AND FLAZASULFURON” (Belchim Crop Protection NV, priority 2017, published 2024)

Assays:
Test in all cases: post-emergence field trial under rows of vines, 150-200 L water/ha (Examples 6-9)
Type in all cases: in vivo
Settings in all cases: flazasulfuron 40 g/ha
[1] = tested on: Amaranthus retroflexus
From the text: (§1) The expected activity of a given combination of two or three herbicides can be calculated as follows according to a calculation method by Colby (cf. COLBY, S. R.: “Calculating synergistic and antagonistic responses of herbicide combinations”, • Weeds 15, pages 20-22, 1967): • If X=% damage by herbicide (A) at an application rate of m g/ha, • Y=% damage by herbicide (B) at an application rate of n g/ha, • E=the expected damage by herbicides (A) and (B) at application rates of m and n […] and, • then for a combination:
(§2) Individual compositions comprising pelargonic acid or flazasulfuron are compared with a herbicide composition according to the invention comprising pelargonic acid and flazasulfuron.
(§3) Herbicidal activity was determined by performing a post-emergence test. […] The corresponding mixture was in the form of a spray solution. Besides, spray solutions of individual compositions comprising pelargonic acid or flazasulfuron were used.
(§4) The spray solution was applied on plants of unwanted vegetation present on fields where perennial crops were grown.
(§5) After 5 to 88 days after application of the spray solution, the degree of damage to the unwanted vegetation is rated in % of plants of unwanted vegetation that were killed. Tests were performed on test fields (field trials).

[2] = tested on: Bromus oxyodon
From the text: as §1, §2, §3, §4, §5

[3] = tested on: Chenopodium album
From the text: as §1, §2, §3, §4, §5

[4] = tested on: Convolvulus arvensis
From the text: as §1, §2, §3, §4, §5

[5] = tested on: Digitaria sanguinalis
From the text: as §1, §2, §3, §4, §5

[6] = tested on: Erigeron sumatrensis
From the text: as §1, §2, §3, §4, §5

[7] = tested on: Oxalis latifolia
From the text: as §1, §2, §3, §4, §5

[8] = tested on: Senecio vulgaris
From the text: as §1, §2, §3, §4, §5

[9] = tested on: Sonchus oleracea
From the text: as §1, §2, §3, §4, §5

[10] = tested on: Stellaria media
From the text: as §1, §2, §3, §4, §5

[11] = tested on: Veronica persicae
From the text: as §1, §2, §3, §4, §5

[12] = 7 d, pelargonic acid 10880 g/ha
[13] = 14 d, pelargonic acid 5440 g/ha
[14] = 14 d, pelargonic acid 10880 g/ha
[15] = 31 d, pelargonic acid 5440 g/ha
[16] = 31 d, pelargonic acid 6800 g/ha
[17] = 31 d, pelargonic acid 8160 g/ha
[18] = 31 d, pelargonic acid 10880 g/ha
[19] = 58 d, pelargonic acid 5440 g/ha
[20] = 58 d, pelargonic acid 6800 g/ha
[21] = 58 d, pelargonic acid 8160 g/ha
[22] = 58 d, pelargonic acid 10880 g/ha
[23] = 14 d, pelargonic acid 6800 g/ha
[24] = 14 d, pelargonic acid 8160 g/ha
[25] = 28 d, pelargonic acid 5440 g/ha
[26] = 28 d, pelargonic acid 6800 g/ha
[27] = 28 d, pelargonic acid 8160 g/ha
[28] = 28 d, pelargonic acid 10880 g/ha
[29] = 27 d, pelargonic acid 5440 g/ha
[30] = 27 d, pelargonic acid 6800 g/ha
[31] = 27 d, pelargonic acid 8160 g/ha
[32] = 27 d, pelargonic acid 10880 g/ha
[33] = 56 d, pelargonic acid 5440 g/ha
[34] = 56 d, pelargonic acid 6800 g/ha
[35] = 56 d, pelargonic acid 8160 g/ha
[36] = 56 d, pelargonic acid 10880 g/ha

Compound: CCCCCCCCC(=O)O [Pelargonic acid, nonanoic acid]
- herbicidal effect ([1]; 7 d, pelargonic acid 5440 g/ha): 53%
- herbicidal effect [1, 12]: 86%
- herbicidal effect [1, 13]: 53%
- herbicidal effect [1, 14]: 86%
- herbicidal effect [1, 15]: 48%
- herbicidal effect [1, 16]: 50%
- herbicidal effect [1, 17]: 70%
- herbicidal effect [1, 18]: 75%
- herbicidal effect [1, 19]: 18%
- herbicidal effect [1, 20]: 30%
- herbicidal effect [1, 21]: 48%
- herbicidal effect [1, 22]: 63%
- herbicidal effect ([2]; 7 d, pelargonic acid 5440 g/ha): 10%
- herbicidal effect ([2]; 7 d, pelargonic acid 6800 g/ha): 11%
- herbicidal effect ([2]; 7 d, pelargonic acid 8160 g/ha): 15%
- herbicidal effect [2, 12]: 18%
- herbicidal effect [2, 13]: 11%
- herbicidal effect [2, 23]: 16%
- herbicidal effect [2, 24]: 20%
- herbicidal effect [2, 14]: 23%
- herbicidal effect [2, 25]: 8%
- herbicidal effect [2, 26]: 11%
- herbicidal effect [2, 27]: 16%
- herbicidal effect [2, 28]: 18%
- herbicidal effect ([3]; 7 d, pelargonic acid 5440 g/ha): 60%
- herbicidal effect [3, 12]: 91%
- herbicidal effect [3, 13]: 60%
- herbicidal effect [3, 14]: 91%
- herbicidal effect [3, 15]: 45%
- herbicidal effect [3, 17]: 74%
- herbicidal effect [3, 18]: 78%
- herbicidal effect [3, 19]: 23%
- herbicidal effect [3, 20]: 35%
- herbicidal effect [3, 21]: 65%
- herbicidal effect [3, 22]: 65%
- herbicidal effect ([4]; 7 d, pelargonic acid 5440 g/ha): 13%
- herbicidal effect ([4]; 7 d, pelargonic acid 6800 g/ha): 0%
- herbicidal effect ([4]; 7 d, pelargonic acid 8160 g/ha): 19%
- herbicidal effect [4, 13]: 13%
- herbicidal effect [4, 23]: 0%
- herbicidal effect [4, 24]: 23%
- herbicidal effect [4, 14]: 43%
- herbicidal effect [4, 26]: 0%
- herbicidal effect [4, 27]: 0%
- herbicidal effect [4, 28]: 38%
- herbicidal effect ([4]; 65 d, pelargonic acid 5440 g/ha): 0%
- herbicidal effect ([4]; 65 d, pelargonic acid 6800 g/ha): 0%
- herbicidal effect ([4]; 65 d, pelargonic acid 8160 g/ha): 0%
- herbicidal effect ([4]; 65 d, pelargonic acid 10880 g/ha): 0%
- herbicidal effect ([5]; 7 d, pelargonic acid 5440 g/ha): 35%
- herbicidal effect ([5]; 7 d, pelargonic acid 6800 g/ha): 63%
- herbicidal effect ([5]; 7 d, pelargonic acid 8160 g/ha): 48%
- herbicidal effect [5, 12]: 54%
- herbicidal effect [5, 13]: 10%
- herbicidal effect [5, 23]: 58%
- herbicidal effect [5, 24]: 43%
- herbicidal effect [5, 14]: 49%
- herbicidal effect [5, 29]: 10%
- herbicidal effect [5, 30]: 20%
- herbicidal effect [5, 31]: 26%
- herbicidal effect [5, 32]: 5%
- herbicidal effect [5, 33]: 0%
- herbicidal effect [5, 34]: 8%
- herbicidal effect [5, 35]: 0%
- herbicidal effect [5, 36]: 0%
- herbicidal effect ([6]; 5 d, pelargonic acid 5440 g/ha): 55%
- herbicidal effect ([6]; 5 d, pelargonic acid 8160 g/ha): 83%
- herbicidal effect ([6]; 15 d, pelargonic acid 5440 g/ha): 35%
- herbicidal effect ([6]; 15 d, pelargonic acid 6800 g/ha): 50%
- herbicidal effect ([6]; 15 d, pelargonic acid 8160 g/ha): 61%
- herbicidal effect ([7]; 7 d, pelargonic acid 6800 g/ha): 54%
- herbicidal effect ([7]; 7 d, pelargonic acid 8160 g/ha): 58%
- herbicidal effect [7, 12]: 73%
- herbicidal effect [7, 13]: 76%
- herbicidal effect [7, 23]: 85%
- herbicidal effect [7, 24]: 89%
- herbicidal effect [7, 14]: 96%
- herbicidal effect [7, 26]: 68%
- herbicidal effect ([8]; 7 d, pelargonic acid 5440 g/ha): 83%
- herbicidal effect ([8]; 7 d, pelargonic acid 6800 g/ha): 89%
- herbicidal effect [8, 13]: 80%
- herbicidal effect [8, 23]: 89%
- herbicidal effect [8, 24]: 98%
- herbicidal effect [8, 15]: 60%
- herbicidal effect [8, 16]: 60%
- herbicidal effect [8, 17]: 91%
- herbicidal effect [8, 18]: 90%
- herbicidal effect [8, 19]: 0%
- herbicidal effect [8, 21]: 10%
- herbicidal effect [8, 22]: 15%
- herbicidal effect [9, 13]: 25%
- herbicidal effect [9, 23]: 45%
- herbicidal effect [9, 24]: 25%
- herbicidal effect [9, 14]: 28%
- herbicidal effect [9, 29]: 0%
- herbicidal effect [9, 30]: 13%
- herbicidal effect [9, 31]: 0%
- herbicidal effect [9, 32]: 0%
- herbicidal effect [9, 33]: 0%
- herbicidal effect [9, 34]: 0%
- herbicidal effect [9, 35]: 0%
- herbicidal effect [9, 36]: 0%
- herbicidal effect ([10]; 7 d, pelargonic acid 8160 g/ha): 49%
- herbicidal effect [10, 12]: 54%
- herbicidal effect [10, 13]: 69%
- herbicidal effect [10, 23]: 75%
- herbicidal effect [10, 24]: 66%
- herbicidal effect [10, 14]: 80%
- herbicidal effect [10, 25]: 80%
- herbicidal effect [10, 26]: 84%
- herbicidal effect [10, 27]: 86%
- herbicidal effect [10, 28]: 93%
- herbicidal effect ([11]; 7 d, pelargonic acid 5440 g/ha): 43%
- herbicidal effect ([11]; 7 d, pelargonic acid 6800 g/ha): 55%
- herbicidal effect ([11]; 7 d, pelargonic acid 8160 g/ha): 50%
- herbicidal effect [11, 12]: 45%
- herbicidal effect [11, 13]: 10%
- herbicidal effect [11, 23]: 45%
- herbicidal effect [11, 24]: 30%
- herbicidal effect [11, 14]: 30%
- herbicidal effect [11, 29]: 0%
- herbicidal effect [11, 30]: 20%
- herbicidal effect [11, 31]: 0%
- herbicidal effect [11, 32]: 0%
- herbicidal effect [11, 33]: 0%
- herbicidal effect [11, 36]: 0%
